According to PMC9030254, “Target Hopping from Protein Kinases to PXR: Identification of Small-Molecule Protein Kinase Inhibitors as Selective Modulators of Pregnane X Receptor from TüKIC Library” (Cells, 2022):

Assays:
Experiment in all cases: Kinase profiling
Assay type in all cases: biochemical
[1] = target: T1, ABL2 (Homo sapiens, UniProt P42684)
T1 construct: purchased ProQinase (Freiburg, Germany)
Procedure: (§1) The analysis was performed by ProQinase (Freiburg, Germany).

[2] = target: T2, AuroraA (Homo sapiens, UniProt O14965)
T2 construct: purchased ProQinase (Freiburg, Germany)
T2 sequence (O14965 1-403): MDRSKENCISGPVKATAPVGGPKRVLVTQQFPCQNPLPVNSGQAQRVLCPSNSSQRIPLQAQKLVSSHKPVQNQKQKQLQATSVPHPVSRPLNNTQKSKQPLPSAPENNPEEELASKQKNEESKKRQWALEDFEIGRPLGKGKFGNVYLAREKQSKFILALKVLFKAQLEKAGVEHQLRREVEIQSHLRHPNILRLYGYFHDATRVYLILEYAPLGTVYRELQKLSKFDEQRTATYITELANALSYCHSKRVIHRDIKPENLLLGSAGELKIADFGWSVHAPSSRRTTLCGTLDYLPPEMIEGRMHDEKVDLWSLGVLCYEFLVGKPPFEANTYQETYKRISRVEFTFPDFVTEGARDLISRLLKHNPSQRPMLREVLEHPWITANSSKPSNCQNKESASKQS
Procedure: as §1

[3] = target: T3, CAMK1D (Homo sapiens, UniProt Q8IU85)
T3 construct: purchased ProQinase (Freiburg, Germany)
T3 sequence (Q8IU85 whole entry): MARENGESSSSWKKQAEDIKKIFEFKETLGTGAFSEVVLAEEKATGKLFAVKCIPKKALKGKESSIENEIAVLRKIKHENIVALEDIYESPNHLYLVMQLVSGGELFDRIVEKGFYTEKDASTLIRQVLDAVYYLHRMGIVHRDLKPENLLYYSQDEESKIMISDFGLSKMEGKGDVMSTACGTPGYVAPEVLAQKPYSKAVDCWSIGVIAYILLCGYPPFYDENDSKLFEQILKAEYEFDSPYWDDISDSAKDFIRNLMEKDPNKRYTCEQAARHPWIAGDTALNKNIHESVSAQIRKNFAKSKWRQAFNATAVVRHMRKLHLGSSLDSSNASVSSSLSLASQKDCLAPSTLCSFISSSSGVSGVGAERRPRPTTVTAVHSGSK
Procedure: as §1

[4] = target: T4, CK2alpha1 (Homo sapiens, UniProt P68400)
T4 construct: purchased ProQinase (Freiburg, Germany)
T4 sequence (P68400 whole entry): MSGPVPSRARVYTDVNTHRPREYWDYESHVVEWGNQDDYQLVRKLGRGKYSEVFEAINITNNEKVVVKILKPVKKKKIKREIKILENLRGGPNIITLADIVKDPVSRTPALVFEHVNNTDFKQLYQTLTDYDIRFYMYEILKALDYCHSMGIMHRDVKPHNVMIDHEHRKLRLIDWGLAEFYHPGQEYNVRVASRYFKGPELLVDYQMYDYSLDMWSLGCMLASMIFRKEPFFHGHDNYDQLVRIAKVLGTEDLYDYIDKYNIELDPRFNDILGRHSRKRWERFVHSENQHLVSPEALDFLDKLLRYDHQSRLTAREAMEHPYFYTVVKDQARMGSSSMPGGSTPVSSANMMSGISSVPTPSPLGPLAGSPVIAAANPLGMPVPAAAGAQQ
Procedure: as §1

[5] = target: T5, DMPK (Homo sapiens, UniProt Q09013)
T5 construct: purchased ProQinase (Freiburg, Germany)
T5 sequence (Q09013 1-629): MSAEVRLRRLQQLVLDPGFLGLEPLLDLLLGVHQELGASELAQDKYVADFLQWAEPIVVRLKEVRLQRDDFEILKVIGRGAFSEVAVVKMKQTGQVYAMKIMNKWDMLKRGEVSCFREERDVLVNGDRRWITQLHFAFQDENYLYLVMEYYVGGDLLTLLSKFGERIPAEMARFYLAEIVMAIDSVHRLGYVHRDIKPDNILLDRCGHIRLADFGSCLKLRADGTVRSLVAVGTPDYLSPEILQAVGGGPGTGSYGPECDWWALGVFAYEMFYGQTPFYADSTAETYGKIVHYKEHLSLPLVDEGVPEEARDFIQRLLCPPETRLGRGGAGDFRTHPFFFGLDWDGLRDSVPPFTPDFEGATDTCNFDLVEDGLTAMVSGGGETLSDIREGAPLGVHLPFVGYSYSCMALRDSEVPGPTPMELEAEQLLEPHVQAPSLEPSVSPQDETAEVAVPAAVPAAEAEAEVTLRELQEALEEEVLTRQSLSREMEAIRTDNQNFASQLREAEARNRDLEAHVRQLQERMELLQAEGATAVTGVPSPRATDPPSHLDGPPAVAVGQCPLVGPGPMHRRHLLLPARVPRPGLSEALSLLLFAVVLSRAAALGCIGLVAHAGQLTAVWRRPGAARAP
Procedure: as §1

[6] = target: T6, MUSK (Homo sapiens, UniProt O15146)
T6 construct: purchased ProQinase (Freiburg, Germany)
T6 sequence (O15146 24-869): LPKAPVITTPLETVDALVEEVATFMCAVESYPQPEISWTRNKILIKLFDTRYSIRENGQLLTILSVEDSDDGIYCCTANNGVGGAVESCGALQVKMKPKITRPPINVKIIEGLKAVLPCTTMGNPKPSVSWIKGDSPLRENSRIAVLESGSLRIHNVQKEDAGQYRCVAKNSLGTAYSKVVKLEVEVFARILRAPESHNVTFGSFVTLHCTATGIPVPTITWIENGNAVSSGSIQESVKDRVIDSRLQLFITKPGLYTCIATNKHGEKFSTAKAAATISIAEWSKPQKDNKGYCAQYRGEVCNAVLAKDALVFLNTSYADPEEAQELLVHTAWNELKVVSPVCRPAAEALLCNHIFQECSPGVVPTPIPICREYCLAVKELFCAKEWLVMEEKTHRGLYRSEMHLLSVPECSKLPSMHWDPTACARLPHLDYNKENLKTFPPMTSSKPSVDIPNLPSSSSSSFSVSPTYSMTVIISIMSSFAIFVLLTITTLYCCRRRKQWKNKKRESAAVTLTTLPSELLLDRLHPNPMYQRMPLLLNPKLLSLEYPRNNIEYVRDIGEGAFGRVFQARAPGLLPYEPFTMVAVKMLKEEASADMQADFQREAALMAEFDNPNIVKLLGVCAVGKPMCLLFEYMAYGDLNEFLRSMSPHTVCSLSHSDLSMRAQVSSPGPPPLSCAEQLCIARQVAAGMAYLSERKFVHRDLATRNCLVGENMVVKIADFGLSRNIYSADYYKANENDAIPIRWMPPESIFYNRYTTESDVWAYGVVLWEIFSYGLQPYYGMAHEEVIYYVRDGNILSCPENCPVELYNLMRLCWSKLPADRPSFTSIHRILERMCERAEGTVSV
Procedure: as §1

[7] = target: T7, PAK7 (Homo sapiens, UniProt Q9P286)
T7 construct: purchased ProQinase (Freiburg, Germany)
T7 sequence (Q9P286 whole entry): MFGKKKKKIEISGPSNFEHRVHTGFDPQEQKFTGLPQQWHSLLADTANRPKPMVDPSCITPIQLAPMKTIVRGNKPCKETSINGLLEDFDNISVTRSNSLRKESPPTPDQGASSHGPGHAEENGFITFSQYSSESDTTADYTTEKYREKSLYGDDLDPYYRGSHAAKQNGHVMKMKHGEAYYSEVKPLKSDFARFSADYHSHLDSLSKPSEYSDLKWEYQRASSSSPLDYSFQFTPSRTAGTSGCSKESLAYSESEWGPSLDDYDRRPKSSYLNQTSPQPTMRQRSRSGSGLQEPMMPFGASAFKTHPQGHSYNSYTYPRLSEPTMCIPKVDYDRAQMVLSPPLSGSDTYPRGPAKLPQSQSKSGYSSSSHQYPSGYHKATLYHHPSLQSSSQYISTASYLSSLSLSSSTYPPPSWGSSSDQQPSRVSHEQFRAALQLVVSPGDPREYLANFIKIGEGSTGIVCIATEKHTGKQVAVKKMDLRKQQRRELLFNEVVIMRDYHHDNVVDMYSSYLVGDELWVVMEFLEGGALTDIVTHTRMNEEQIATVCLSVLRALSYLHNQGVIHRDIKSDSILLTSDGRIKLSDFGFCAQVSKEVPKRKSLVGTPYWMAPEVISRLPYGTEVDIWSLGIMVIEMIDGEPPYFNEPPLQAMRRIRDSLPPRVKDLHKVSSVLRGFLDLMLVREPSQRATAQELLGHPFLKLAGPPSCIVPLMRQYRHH
Procedure: as §1

[8] = target: T8, PBK (Homo sapiens, UniProt Q96KB5)
T8 construct: purchased ProQinase (Freiburg, Germany)
T8 sequence (Q96KB5 1-322): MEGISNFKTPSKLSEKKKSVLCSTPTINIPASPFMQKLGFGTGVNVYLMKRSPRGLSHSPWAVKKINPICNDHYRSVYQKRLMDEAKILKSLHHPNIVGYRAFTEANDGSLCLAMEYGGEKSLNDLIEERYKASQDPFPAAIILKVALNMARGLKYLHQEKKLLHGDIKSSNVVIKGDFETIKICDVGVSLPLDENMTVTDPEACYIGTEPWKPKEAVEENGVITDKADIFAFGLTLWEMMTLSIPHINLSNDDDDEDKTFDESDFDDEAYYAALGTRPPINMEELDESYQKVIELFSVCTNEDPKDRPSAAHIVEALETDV
Procedure: as §1

[9] = target: T9, p38beta (Homo sapiens, UniProt Q15759); settings: for inhibition at 10 µM: read-out: inhibition of p38β
T9 construct: purchased ProQinase (Freiburg, Germany)
T9 sequence (Q15759 whole entry): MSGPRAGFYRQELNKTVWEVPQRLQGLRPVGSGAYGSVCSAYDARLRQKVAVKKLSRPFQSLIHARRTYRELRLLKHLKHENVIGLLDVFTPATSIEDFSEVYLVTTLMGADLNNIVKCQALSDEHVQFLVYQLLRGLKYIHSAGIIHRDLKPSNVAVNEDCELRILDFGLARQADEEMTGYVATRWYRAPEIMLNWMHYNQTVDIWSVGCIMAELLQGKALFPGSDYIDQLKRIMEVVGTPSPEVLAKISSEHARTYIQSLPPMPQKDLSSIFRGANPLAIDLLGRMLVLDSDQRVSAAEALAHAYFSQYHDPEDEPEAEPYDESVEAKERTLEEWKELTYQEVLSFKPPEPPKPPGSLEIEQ
Procedure: as §1

T1 sequence (P42684 whole entry): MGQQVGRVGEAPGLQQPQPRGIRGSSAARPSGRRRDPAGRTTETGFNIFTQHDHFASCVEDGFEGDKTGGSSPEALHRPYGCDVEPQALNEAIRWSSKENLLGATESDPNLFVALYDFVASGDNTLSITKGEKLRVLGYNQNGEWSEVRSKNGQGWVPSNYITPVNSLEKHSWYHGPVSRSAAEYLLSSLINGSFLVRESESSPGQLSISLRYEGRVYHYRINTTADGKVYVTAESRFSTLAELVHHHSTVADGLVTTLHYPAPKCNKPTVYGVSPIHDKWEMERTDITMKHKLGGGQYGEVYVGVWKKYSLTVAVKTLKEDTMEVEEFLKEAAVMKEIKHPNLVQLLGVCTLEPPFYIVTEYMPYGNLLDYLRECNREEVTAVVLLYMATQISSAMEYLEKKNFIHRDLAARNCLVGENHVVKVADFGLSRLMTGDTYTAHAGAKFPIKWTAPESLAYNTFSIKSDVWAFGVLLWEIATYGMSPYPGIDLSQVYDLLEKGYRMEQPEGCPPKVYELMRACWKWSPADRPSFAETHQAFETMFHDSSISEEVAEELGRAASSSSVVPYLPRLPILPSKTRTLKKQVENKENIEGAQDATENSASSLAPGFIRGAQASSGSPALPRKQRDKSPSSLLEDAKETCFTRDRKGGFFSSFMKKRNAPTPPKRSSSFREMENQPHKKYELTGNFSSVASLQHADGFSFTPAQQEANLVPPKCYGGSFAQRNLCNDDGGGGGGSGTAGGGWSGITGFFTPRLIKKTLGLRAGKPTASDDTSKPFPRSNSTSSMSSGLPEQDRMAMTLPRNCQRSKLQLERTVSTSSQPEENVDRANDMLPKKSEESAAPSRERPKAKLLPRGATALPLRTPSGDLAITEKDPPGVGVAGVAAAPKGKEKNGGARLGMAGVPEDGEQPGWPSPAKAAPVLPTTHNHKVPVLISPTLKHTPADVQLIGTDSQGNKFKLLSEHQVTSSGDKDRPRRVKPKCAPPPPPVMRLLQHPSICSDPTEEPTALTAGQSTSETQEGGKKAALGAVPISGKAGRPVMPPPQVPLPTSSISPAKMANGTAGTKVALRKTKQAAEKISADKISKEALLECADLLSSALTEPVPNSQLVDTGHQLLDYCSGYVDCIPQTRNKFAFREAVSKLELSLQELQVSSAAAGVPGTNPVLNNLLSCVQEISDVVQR

Question: Which Residual activity ([1]; 1.0E-05 M) does the source give for `O=C(Cc1ccccc1)Nc1ccc(F)c(Nc2ccc3c(c2)CCCCC3=O)c1` [Compound 100] here?
Answer: Its Residual activity is 93 % of control.

Question: And the Residual activity ([1]; 1.0E-06 M)?
Answer: Its Residual activity is 97 % of control.

Question: What about the Residual activity ([2]; 1.0E-05 M) of the same compound?
Answer: Its Residual activity is 91 % of control.

Question: And the Residual activity ([2]; 1.0E-06 M)?
Answer: Its Residual activity is 96 % of control.

Question: And the Residual activity ([3]; 1.0E-05 M)?
Answer: Its Residual activity is 88 % of control.

Question: What about the Residual activity ([3]; 1.0E-06 M) of the same compound?
Answer: The Residual activity was 85 % of control.

Question: And the Residual activity ([4]; 1.0E-05 M)?
Answer: Its Residual activity is 106 % of control.

Question: And the Residual activity ([4]; 1.0E-06 M)?
Answer: The Residual activity was 102 % of control.

Question: What about the Residual activity ([5]; 1.0E-05 M) of the same compound?
Answer: Its Residual activity is 100 % of control.

Question: And the Residual activity ([5]; 1.0E-06 M)?
Answer: The Residual activity was 101 % of control.

Question: What about the Residual activity ([6]; 1.0E-05 M) of the same compound?
Answer: Its Residual activity is 93 % of control.

Question: What about the Residual activity ([6]; 1.0E-06 M) of the same compound?
Answer: Its Residual activity is 98 % of control.

Question: What about the Residual activity ([7]; 1.0E-05 M) of the same compound?
Answer: The Residual activity was 92 % of control.

Question: What about the Residual activity ([7]; 1.0E-06 M) of the same compound?
Answer: Its Residual activity is 99 % of control.

Question: What about the Residual activity ([8]; 1.0E-05 M) of the same compound?
Answer: The Residual activity was 93 % of control.

Question: What about the Residual activity ([8]; 1.0E-06 M) of the same compound?
Answer: The Residual activity was 128 % of control.

Question: And the inhibition at 10 µM [9]?
Answer: Its inhibition at 10 µM is no less than 50%.

Question: What about the Residual activity ([9]; 1.0E-05 M) of the same compound?
Answer: Its Residual activity is 50 % of control.

Question: What about the Residual activity ([9]; 1.0E-06 M) of the same compound?
Answer: The Residual activity was 71 % of control.

Question: How did the Residual activity ([1]; 1.0E-05 M) turn out when `O=C(Nc1ccc(F)c(Nc2ccc3c(c2)CCCCC3=O)c1)c1cccc(F)c1` [Compound 109] was run?
Answer: Its Residual activity is 92 % of control.

Question: What about the Residual activity ([1]; 1.0E-06 M) of the same compound?
Answer: The Residual activity was 95 % of control.

Question: What about the Residual activity ([2]; 1.0E-05 M) of the same compound?
Answer: Its Residual activity is 90 % of control.

Question: What about the Residual activity ([2]; 1.0E-06 M) of the same compound?
Answer: Its Residual activity is 93 % of control.

Question: And the Residual activity ([3]; 1.0E-05 M)?
Answer: Its Residual activity is 89 % of control.

Question: And the Residual activity ([3]; 1.0E-06 M)?
Answer: The Residual activity was 93 % of control.

Question: And the Residual activity ([4]; 1.0E-05 M)?
Answer: The Residual activity was 98 % of control.

Question: What about the Residual activity ([4]; 1.0E-06 M) of the same compound?
Answer: The Residual activity was 102 % of control.

Question: What about the Residual activity ([5]; 1.0E-05 M) of the same compound?
Answer: Its Residual activity is 94 % of control.

Question: And the Residual activity ([5]; 1.0E-06 M)?
Answer: The Residual activity was 99 % of control.

Question: And the Residual activity ([6]; 1.0E-05 M)?
Answer: Its Residual activity is 83 % of control.

Question: And the Residual activity ([6]; 1.0E-06 M)?
Answer: Its Residual activity is 97 % of control.

Question: And the Residual activity ([7]; 1.0E-05 M)?
Answer: Its Residual activity is 93 % of control.

Question: And the Residual activity ([7]; 1.0E-06 M)?
Answer: The Residual activity was 101 % of control.

Question: And the Residual activity ([8]; 1.0E-05 M)?
Answer: Its Residual activity is 106 % of control.

Question: What about the Residual activity ([8]; 1.0E-06 M) of the same compound?
Answer: The Residual activity was 95 % of control.

Question: What about the inhibition at 10 µM [9] of the same compound?
Answer: Its inhibition at 10 µM is no less than 50%.

Question: And the Residual activity ([9]; 1.0E-05 M)?
Answer: Its Residual activity is 2 % of control.

Question: What about the Residual activity ([9]; 1.0E-06 M) of the same compound?
Answer: Its Residual activity is 3 % of control.
